Data as given in PubChem BioAssay (NCI).
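Cells were grown in 96-well plates and exposed to each compound for 48 hours at five concentrations; endpoints were interpolated linearly between bracketing concentrations, or set to the highest concentration if not reached. The concentration for full growth arrest is given as TGI.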

The compounds below were run on RXF-631 renal (assay: growth of human tumour cells (NCI), 48 h).

| SMILES | TGI [µM] |
| --- | --- |
| CC(=O)NNc1nc(C)c(C(/C=C/c2ccc(Cl)cc2)=N\N=C(N)N)s1 | > 100 |
| O=C(CC(=O)N1N=C(n2ccc3ccccc32)CC1c1ccccc1)Nc1ccc(Cl)cc1 (stereo not given) | > 100 |
| O=S1(=O)OCCOS(=O)(=O)C1(Cl)Cl | > 100 |
| Cc1ccc(NC(=O)CCc2nnc3s/c(=C\c4cccc([N+](=O)[O-])c4)c(=O)n23)cc1 | > 100 |
| Cc1cc(N(CCC#N)CCC#N)ccc1/C=C1N=C(/C=C/c2ccccc2)N(c2ccc(S(N)(=O)=O)cc2)C\1=O | > 100 |
